The values below come from US8163740B2, “6-substituted benzoxazines” (Hoffmann-La Roche Inc., priority 2008, dated 2012).

Structures are written as SMILES.

Chain of recombinant human 5-HT5A receptor (P47898 whole entry): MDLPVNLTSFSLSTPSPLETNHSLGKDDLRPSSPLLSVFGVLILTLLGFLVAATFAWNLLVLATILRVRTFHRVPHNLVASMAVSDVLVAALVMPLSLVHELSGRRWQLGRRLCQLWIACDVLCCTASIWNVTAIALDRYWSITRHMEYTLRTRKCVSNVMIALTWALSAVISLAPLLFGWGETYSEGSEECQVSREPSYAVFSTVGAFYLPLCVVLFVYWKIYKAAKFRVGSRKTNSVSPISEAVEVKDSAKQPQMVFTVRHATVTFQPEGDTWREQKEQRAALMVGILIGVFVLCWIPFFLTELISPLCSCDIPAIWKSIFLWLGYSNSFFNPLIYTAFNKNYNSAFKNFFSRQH

The target of the experiment is recombinant human 5-HT5A receptor (Homo sapiens, UniProt P47898). Description: [3H]LSD radioligand binding assay. As to conditions: [3H]LSD (approximately 1 nM); membranes from HEK-EBNA cells transiently expressing 5-HT5A; Ki by Cheng-Prussoff equation; read-out: Ki. The method, then:
A [^3H]LSD radioligand binding assay was used to determine the affinity of the compounds for the recombinant human 5-HT5A receptor, in membranes from transiently (cDNA) expressed 5-HT5A receptors in Human Embryonic Kidney-EBNA (HEK-EBNA) cells. Assay buffer consisted of Tris (50 mM) buffer containing 1 mM EGTA, 10 mM MgCl2 (pH 7.4) and 10 μM pargyline. The binding assay was carried out in 96-well-plates in the presence of [^3H]LSD (approximately 1 nM), approximately 2 μg/well of membrane protein, and 0.5 mg of Ysi-poly-1-lysine SPA beads in a final volume of 200 μl of buffer. Non-specific binding was defined using methiothepin 2 μM. Compounds were tested at 10 concentrations. All assays were conducted in duplicate and repeated at least two times. Assay plates were incubated for 120 min at room temperature before centrifugation. Bound ligand was determined using a Packard Topcount scintillation counter. IC50 values were calculated using a non-linear curve fitting program and Ki values calculated using the Cheng-Prussoff equation.
What is called Ki is a measure of affinity in units of concentration, obtained from inhibition or displacement. With `COC[C@@H]1CN(CC(=O)Nc2ccc3c(c2)COC(N[C@@H]2CCc4ccccc42)=N3)C[C@@H](COC)N1C` (mixture of isomers) [Example 158, 2-((3SR,5SR)-3,5-Bis-(methoxymethyl)-4-methyl-piperazin-1-yl)-N-[2-((R)-indan-1-ylamino)-4H-benzo[d][1,3]oxazin-6-yl]-acetamide], the Ki worked out at 16.1 nM.

Regarding `COc1cccc2c1C(NC1=Nc3ccc([N+](=O)[O-])cc3CO1)CO2` (racemic) [Example 5, rac-(4-Methoxy-2,3-dihydro-benzofuran-3-yl)-(6-nitro-4H-benzo[d][1,3]oxazin-2-yl)-amine], the Ki amounted to 368 nM.

On to `COc1cccc2c1C(NC1=Nc3ccc(N)cc3CO1)CO2` (racemic) [Example 6, rac-N^2-(4-Methoxy-2,3-dihydro-benzofuran-3-yl)-4H-benzo[d][1,3]oxazine-2,6-diamine], for which the Ki came to 7.83 nM.

In the case of `COc1cccc2c1C(NC1=Nc3ccc(NC(=O)CCl)cc3CO1)CO2` (racemic) [Example 8, rac-2-Chloro-N-[2-(4-methoxy-2,3-dihydro-benzofuran-3-ylamino)-4H-benzo[d][1,3]oxazin-6-yl]-acetamide], the Ki was found to be 20.7 nM.

In the case of `COc1cccc2c1C(NC1=Nc3ccc(NC(=O)CN4CCN(C)CC4)cc3CO1)CO2` (racemic) [Example 9, rac-N-[2-(4-Methoxy-2,3-dihydro-benzofuran-3-ylamino)-4H-benzo[d][1,3]oxazin-6-yl]-2-(4-methyl-piperazin-1-yl)-acetamide], the Ki stood at 5.69 nM.

In the case of `COc1cccc2c1C(NC1=Nc3ccc(N)cc3CO1)CC2` (racemic) [Example 10, rac-N^2-(7-Methoxy-indan-1-yl)-4H-benzo[d][1,3]oxazine-2,6-diamine], the Ki was 1.2 nM.

`Nc1ccc2c(c1)COC(NC1CCc3cc(F)ccc31)=N2` (racemic) [Example 11, rac-N^2-(5-Fluoro-indan-1-yl)-4H-benzo[d][1,3]oxazine-2,6-diamine]: the Ki was found to be 1.26 nM.

For the compound `COc1cccc2c1C(NC1=Nc3ccc(NC(=O)CN4CCN(C(C)C)CC4)cc3CO1)CO2` (racemic) [Example 12, rac-2-(4-Isopropyl-piperazin-1-yl)-N-[2-(4-methoxy-2,3-dihydro-benzofuran-3-ylamino)-4H-benzo[d][1,3]oxazin-6-yl]-acetamide], the Ki came out at 9.28 nM.

For `COc1cccc2c1C(NC1=Nc3ccc(NC(=O)CN4CCOCC4)cc3CO1)CO2` (racemic) [Example 13, rac-N-[2-(4-Methoxy-2,3-dihydro-benzofuran-3-ylamino)-4H-benzo[d][1,3]oxazin-6-yl]-2-morpholin-4-yl-acetamide], the Ki is 40.6 nM.

For the compound `COc1cccc2c1C(NC1=Nc3ccc(NC(=O)NC4CCN(C(C)C)CC4)cc3CO1)CO2` (racemic) [Example 14, rac-1-(1-Isopropyl-piperidin-4-yl)-3-[2-(4-methoxy-2,3-dihydro-benzofuran-3-ylamino)-4H-benzo[d][1,3]oxazin-6-yl]-urea], the Ki amounted to 4.37 nM.

With `COc1cccc2c1C(NC1=Nc3ccc(NC(=O)N(C)C4CCN(C(C)C)CC4)cc3CO1)CO2` (racemic) [Example 15, rac-1-(1-Isopropyl-piperidin-4-yl)-3-[2-(4-methoxy-2,3-dihydro-benzofuran-3-ylamino)-4H-benzo[d][1,3]oxazin-6-yl]-1-methyl-urea], the Ki turned out to be 6.08 nM.

`COc1cccc2c1C(NC1=Nc3ccc(NC(=O)NC(C)C)cc3CO1)CO2` (racemic) [Example 16, rac-1-Isopropyl-3-[2-(4-methoxy-2,3-dihydro-benzofuran-3-ylamino)-4H-benzo[d][1,3]oxazin-6-yl]-urea]: the Ki is 2.93 nM.

In the case of `COCC(=O)Nc1ccc2c(c1)COC(NC1COc3cccc(OC)c31)=N2` (racemic) [Example 17, rac-2-Methoxy-N-[2-(4-methoxy-2,3-dihydro-benzofuran-3-ylamino)-4H-benzo[d][1,3]oxazin-6-yl]-acetamide], the Ki was 26.1 nM.

As for `O=C(Nc1ccc2c(c1)COC(NC1CCc3cc(F)ccc31)=N2)C1CC1` (racemic) [Example 20, rac-Cyclopropanecarboxylic acid [2-(5-fluoro-indan-1-ylamino)-4H-benzo[d][1,3]oxazin-6-yl]-amide], the Ki turned out to be 1.36 nM.

Turning to `COCC(=O)Nc1ccc2c(c1)COC(NC1CCc3cc(F)ccc31)=N2` (racemic) [Example 21, rac-N-[2-(5-Fluoro-indan-1-ylamino)-4H-benzo[d][1,3]oxazin-6-yl]-2-methoxy-acetamide], the Ki amounted to 5.5 nM.

In the case of `COc1cccc2c1C(NC1=Nc3ccc(N)cc3CO1)CCC2` (racemic) [Example 22, rac-N^2-(8-Methoxy-1,2,3,4-tetrahydro-naphthalen-1-yl)-4H-benzo[d][1,3]oxazine-2,6-diamine], the Ki worked out at 7.72 nM.

For `COc1cccc2c1C(NC1=Nc3ccc(NC(=O)C4CC4)cc3CO1)CCC2` (racemic) [Example 23, rac-Cyclopropanecarboxylic acid [2-(8-methoxy-1,2,3,4-tetrahydro-naphthalen-1-ylamino)-4H-benzo[d][1,3]oxazin-6-yl]-amide], the Ki came out at 1.85 nM.

For `COCC(=O)Nc1ccc2c(c1)COC(NC1CCc3cccc(OC)c31)=N2` (racemic) [Example 24, rac-2-Methoxy-N-[2-(7-methoxy-indan-1-ylamino)-4H-benzo[d][1,3]oxazin-6-yl]-acetamide], the Ki was 4.83 nM.

In the case of `COc1cccc2c1C(NC1=Nc3ccc(NC(=O)C4CC4)cc3CO1)CC2` (racemic) [Example 25, rac-Cyclopropanecarboxylic acid [2-(7-methoxy-indan-1-ylamino)-4H-benzo[d][1,3]oxazin-6-yl]-amide], the Ki came to 1.06 nM.

Consider `Nc1ccc2c(c1)COC(NC1COc3cc(F)ccc31)=N2` (racemic) [Example 34, rac-N^2-(6-Fluoro-2,3-dihydro-benzofuran-3-yl)-4H-benzo[d][1,3]oxazine-2,6-diamine], for which the Ki turned out to be 4.26 nM.

Turning to `COCCNCC(=O)Nc1ccc2c(c1)COC(NC1COc3cc(F)ccc31)=N2` (racemic) [Example 42, rac-N-[2-(6-Fluoro-2,3-dihydro-benzofuran-3-ylamino)-4H-benzo[d][1,3]oxazin-6-yl]-2-(2-methoxy-ethylamino)-acetamide], the Ki amounted to 56.4 nM.

Regarding `CC(C)(O)CNCC(=O)Nc1ccc2c(c1)COC(NC1COc3cc(F)ccc31)=N2` (racemic) [Example 43, rac-N-[2-(6-Fluoro-2,3-dihydro-benzofuran-3-ylamino)-4H-benzo[d][1,3]oxazin-6-yl]-2-(2-hydroxy-2-methyl-propylamino)-acetamide], the Ki came out at 50.3 nM.

In the case of `CN1CCN(CC(=O)Nc2ccc3c(c2)COC(NC2COc4cc(F)ccc42)=N3)CC1` (racemic) [Example 44, rac-N-[2-(6-Fluoro-2,3-dihydro-benzofuran-3-ylamino)-4H-benzo[d][1,3]oxazin-6-yl]-2-(4-methyl-piperazin-1-yl)-acetamide], the Ki is 6.5 nM.

Consider `O=C(CN1CCOCC1)Nc1ccc2c(c1)COC(NC1COc3cc(F)ccc31)=N2` (racemic) [Example 45, rac-N-[2-(6-Fluoro-2,3-dihydro-benzofuran-3-ylamino)-4H-benzo[d][1,3]oxazin-6-yl]-2-morpholin-4-yl-acetamide], for which the Ki turned out to be 40.7 nM.

On to `COc1cccc2c1C(NC1=Nc3ccc(NS(=O)(=O)N(C)C)cc3CO1)CO2` (racemic) [Example 49, rac-N,N-(Dimethyl)-N′-{2-(4-Methoxy-2,3-dihydro-benzofuran-3-ylamino)-4H-benzo[d][1,3]oxazin-6-yl}-sulfamide], for which the Ki was 21.1 nM.

As for `COc1cccc2c1C(NC1=Nc3ccc(NS(=O)(=O)N4CCCCC4)cc3CO1)CO2` (racemic) [Example 50, rac-Piperidine-1-sulfonic acid [2-(4-methoxy-2,3-dihydro-benzofuran-3-ylamino)-4H-benzo[d][1,3]oxazin-6-yl]-amide], the Ki was found to be 26.9 nM.

`COc1cccc2c1C(NC1=Nc3ccc(NC(C)=O)cc3CO1)CO2` (racemic) [Example 51, rac-N-[2-(4-Methoxy-2,3-dihydro-benzofuran-3-ylamino)-4H-benzo[d][1,3]oxazin-6-yl]-acetamide]: the Ki is 23.7 nM.

Consider `COc1cccc2c1C(NC1=Nc3ccc(NC(C)=O)cc3CO1)CC2` (racemic) [Example 52, rac-N-[2-(7-Methoxy-indan-1-ylamino)-4H-benzo[d][1,3]oxazin-6-yl]-acetamide], for which the Ki is 4.98 nM.

As for `Fc1ccc2c(c1)CCC2NC1=Nc2ccc(Br)cc2CO1` (racemic) [Example 53, rac-(6-Bromo-4H-benzo[d][1,3]oxazin-2-yl)-(5-fluoro-indan-1-yl)-amine], the Ki is 43.6 nM.

Consider `COc1cccc2c1C(NC1=Nc3ccc(NC(=O)CN4CCOCC4)cc3CO1)CC2` (racemic) [Example 55, rac-N-[2-(7-Methoxy-indan-1-ylamino)-4H-benzo[d][1,3]oxazin-6-yl]-2-morpholin-4-yl-acetamide], for which the Ki turned out to be 10.3 nM.

As to `O=C(CN1CCOCC1)Nc1ccc2c(c1)COC(NC1CCc3cc(F)ccc31)=N2` (racemic) [Example 56, rac-N-[2-(5-Fluoro-indan-1-ylamino)-4H-benzo[d][1,3]oxazin-6-yl]-2-morpholin-4-yl-acetamide], the Ki is 13 nM.

As for `Fc1ccc2c(c1)CCC2NC1=Nc2ccc(Nc3cccc(C(F)(F)F)n3)cc2CO1` (racemic) [Example 57, rac-N^2-(5-Fluoro-indan-1-yl)-N^6-(6-trifluoromethyl-pyridin-2-yl)-4H-benzo[d][1,3]oxazine-2,6-diamine], the Ki was 6.06 nM.
